Here are results for one compound from publication PMC8227856, “Antibacterial Activity of a Promising Antibacterial Agent: 22-(4-(2-(4-Nitrophenyl-piperazin-1-yl)-acetyl)-piperazin-1-yl)-22-deoxypleuromutilin” (Molecules, 2021).

Broadly, the MBC is the smallest concentration meeting the test's criterion for killing. As usually defined, the MRT is the average time that molecules of a dose stay in the body. Broadly, the clearance is the volume of plasma or blood freed of the substance per unit of time. Read a high clearance as efficient removal. A word on the AUC(0-inf): it is the area under the concentration-time curve extrapolated to infinity. A low value points to low exposure. As usually defined, the AUC(0-t) is exposure summed from dosing to a finite time, without extrapolation to infinity. The term Cmax denotes the highest concentration seen after dosing. By Tmax is commonly meant the time from dosing to the highest level. As a reminder, the half-life is the time needed for the level to fall by half in the phase considered. A lower half-life goes with fast loss.

≈ marks a conversion by molar mass, not a printed value. Like-named read-outs stand apart in the source and are kept apart here.

Series [1] concerns MRSA ATCC 43300. The experiment in a line: Neutropenic mouse thigh infection model. It counts as in vivo, Staphylococcus aureus. The following applies: 20 mg/kg i.v., neutropenic mice. Here is the method: (§1) The mouse thigh infection model was performed as described in the literature with minor modifications. Briefly, female mice had induced neutropenia (neutrophil count ≤ 100/mm^3) by administered intraperitoneally cyclophosphamide on day 4 (150 mg/kg) and day 1 (100 mg/kg) before the experiment. A bacterial suspension of 0.1 mL (MRSA or S. aureus) containing approximately 10^7 CFU/mL microorganism was injected into the posterior thigh of mice to establish infection. Two hours after infection, mice were intravenously injected with NPDM or tiamulin at 20 mg/kg. After 24 h, thighs (six per group) were collected upon euthanasia. Then, thighs were weighed and homogenized with sterile saline. Tissue homogenate was continuously diluted 10-fold and plated on MHA plates for colony counts. SPSS 19 software was used for statistical analysis and t-tests.

The test system of series [2] is S. aureus ATCC 29213. Put plainly: Neutropenic mouse thigh infection model. It counts as in vivo, Staphylococcus aureus. The following applies: 20 mg/kg i.v., neutropenic mice. As to the method:
as §1

Series [3] concerns MRSA ATCC 43300. Put plainly: MBC assay. It counts as cell-based, Staphylococcus aureus. As to the method:
Determination of MBCs refers to the minimum concentrations of antibacterial agents required to kill 99.9% of the test microorganisms after 24 h of incubation. After obtaining the MICs value, the 96-well plates were placed at 37 °C and incubated for 24 h. One hundred microliter aliquots of the bacterial suspensions were taken from the wells without visible bacterial growth and then plated onto MHA plates. […] The MBC assay was conducted at least in triplicate.

For series [4], the system named is MRSA ATCC 43300. The experiment in a line: Time-kill assay. It counts as cell-based, Staphylococcus aureus. Here is the method:
(§2) The MRSA and S. aureus in the logarithmic phase were diluted to 10^6 CFU/mL with MHB. Then diverse concentrations of NPDM or tiamulin were added to the bacteria solution reaching the final concentration of 1 × MIC, 2 × MIC, 4 × MIC, and 8 × MIC, respectively. All bacterial inoculums were cultured at 37 °C with shaking. A total of 100 μL samples were taken from the subcultures at 0, 3, 6, 9, and 24 h, respectively, and continuously diluted 10-fold in sterile saline; then, 25 μL diluent was plated on the MHA plate. All plates were placed at 37 °C for 24 h. The total number of colonies on the plate was counted, and the results were expressed as log (CFU/mL).

Series [5] has as its system S. aureus ATCC 29213. The experiment in a line: Time-kill assay. It counts as cell-based, Staphylococcus aureus. As to the method:
as §2

The nature of series [6]: Pharmacokinetic study in mice, plasma LC-MS/MS. It counts as in vivo. Here is the method: Adult female mice fasted for 12 h before the experiment. The NPDM was administered intravenously at the dose of 10 mg/kg. Approximately 0.2 mL blood samples were collected from the ocular venous plexus at 0.083, 0.167, 0.25, 0.5, 0.75, 1, 2, 4, 6, 8, 12, and 24 h after administration. All samples were centrifuged at 3000 rpm for 10 min, then the plasma samples were separated and stored at −20 °C. After thawing at room temperature, samples were mixed with acetonitrile (HPLC grade, sample:acetonitrile = 1:4, v/v) and centrifuged at 12,000 rpm for 10 min. Then, the supernatant was purified by the 0.22 μm cellulose membrane filter and transferred into an autosampler vial for HPLC-MS/MS analysis. Information of the equipment and analysis conditions are available in the Supplemental Materials. The pharmacokinetic parameters of the NPDM were calculated using the non-compartmental model in WinNonlin 5.2 software (Pharsight, Mountain View, CA, USA).

The mark [7] stands for this setting: female, mouse, plasma, iv, 10 mg/kg i.v., non-compartmental.

As to `C=C[C@]1(C)C[C@@H](OC(=O)CN2CCN(C(=O)CN3CCN(c4ccc([N+](=O)[O-])cc4)CC3)CC2)[C@]2(C)[C@H](C)CC[C@]3(CCC(=O)[C@H]32)[C@@H](C)[C@@H]1O` [NPDM, 22-(4-(2-(4-nitrophenyl-piperazin-1-yl)-acetyl)-piperazin-1-yl)-22-deoxypleuromutilin], the “Reduction of mean MRSA counts in thighs vs untreated group” value in the series on MRSA ATCC 43300 [1] (24 h) is ~ 1.61 log CFU/mL. For the same compound, the “Average amount of MRSA inoculum in thighs” value with MRSA ATCC 43300 [1] (24 h after treatment) was “(8.16 ± 3.70) × 10^7 CFU”. Besides, the “Average amount of S. aureus inoculum in thighs” value in the series on S. aureus ATCC 29213 [2] (24 h after treatment) is “(1.23 ± 0.51) × 10^8 CFU”. Further, the “Reduction of mean bacterial counts in thighs vs untreated group” value with S. aureus ATCC 29213 [2] (S. aureus, 24 h) is listed as ~ 0.95 log CFU/mL. Further, in the series with MRSA ATCC 43300 [3] (Staphylococcus aureus, MRSA ATCC 43300), the MBC worked out at 0.125 µg/mL (≈ 0.18 µM). The MBC/MIC value entry in the series on MRSA ATCC 43300 [3] (against MRSA) is reported as “one”. For the same compound, the “Time-kill activity at 2 × MIC” value with MRSA ATCC 43300 [4] (2 × MIC) is “bactericidal activity”. In the series on MRSA ATCC 43300 [4] (after incubation for 24 h), the “Concentration showing bactericidal activity (≥3 log10 CFU/mL decrease)” value was no less than 2 × MIC. In the series on S. aureus ATCC 29213 [5], the “Concentration showing bacteriostatic effect” value was no less than 2 × MIC. The MRT in series [6] (10 mg/kg i.v., non-compartmental, 10 mg/kg) worked out at 18.6 ± 3 min. The same compound gave a clearance in series [6] (female, mouse, plasma, 10 mg/kg, single intravenous administration) of 46 mL/min/kg. Moreover, in series [6] (setting [7]), the AUC(0-inf) is 3660 ± 370 ng·h/mL, the AUC(0-t) was 3650 ± 400 ng·h/mL, the Cmax worked out at 8690 ± 740 ng/mL and the Tmax stood at 4.98 min. For the same compound, in series [6] (setting [7]), the half-life is 13.2 ± 2.4 min. Besides, the MRT in series [6] (female, mouse, plasma, iv, 10 mg/kg, 10 mg/kg i.v., non-compartmental, read-out: MRT) stood at 21.6 min.
